One substance from patent EP1997826A2, “Synthetic ligands for immunoglobulins and pharmaceutical compositions containing them” (Tecnogen S.p.A., priority 2007, dated 2008) can be followed below.

This experiment has as its system immunoglobulin fraction of the raw serum. The experiment is described as follows: affinity chromatography of raw rabbit serum on peptide immobilized on CH-Sepharose-4B. Format: binding. Conditions: 50 mM Bis-Tris pH 6.5, elution with acetic acid 0.1 M pH 3.0, albumin eluted to the dead volume. The protocol: The peptide of formula (IB) prepared in Example 1 (10 mg) was dissolved in 5 ml of aqueous solution of sodium bicarbonate 0.1 M, NaCl 0.5 M, pH 8.5 and then added to 0.5 g of activated resin CH-Sepharose-4B (Amersham Biosciences, Uppsala, Sweden, Cat. No. 17-0490-01), a preactivated support for affinity chromatography for the direct coupling of peptides and proteins. The suspension was stirred for 24 hours and the extent of coupling was monitored by taking samples of the reaction mixture, at various times, followed by analysis by RP-HPLC.
Approximately 90-95% of the initial peptide is found to be bound covalently to the resin after 24 hours. The derivatized resin is incubated with 0.1 M Tris, pH 8.5 to block any sites of the resin that are still reactive, and is then packed in a glass column 100 x 0.6 cm I.D. with a variable piston (OMNIFIT, Cat. No. 006CC-06-10-FF).
For the purification of immunoglobulins from serum, the column was equilibrated with a buffer 50 mM Bis-Tris (Sigma, Cat. No. B9754), pH 6.5, to a flow of 1 ml/min, monitoring the eluent at 280 nm. Raw rabbit serum (Sigma, Cat, No. R9133) was loaded in the column and, after elution of the material that was not bound, the eluent was changed to acetic acid 0.1 M, pH 3.0, for elution of the adsorbed material. […]

For the substance “(H-L-Cys(p-MeOBzl)-D-Arg-D-Thr-D-Tyr)4-L-Lys2-L-Lys-L-Lys-OH [Peptide IB]”, the “retention of immunoglobulins by the peptide column” value is “able to retain the immunoglobulin fraction of the raw serum”.
